The test system of data set [1] is U251 MG tumor bearing mice. The data set is described as follows: Biodistribution. In kind it is in vivo, mouse. The note with it: C-2f, i.v., 120 min post injection, unblocked. As for the experimental part:
Biodistribution studies were conducted on female nude mice (8-10 weeks old and 20-25 g in weight, n=21) bearing U251 MG subcutaneous xenografts. The radiolabeled preparation (20-30 μCi of compound C-2d (^131I) in 200 μL of a solution 90% PBS 10% PEG300) was administrated via the lateral tail vein. The compound was allowed to circulate for 2 h post injection at which time mice were sacrificed and organs were harvested (n=3). The radioactive content in tissue of interest (blood, tumor, muscle, bone, liver, spleen, kidney, heart, lung, pancreas, brain, skin, small intestine, large intestine, stomach, tail, thyroid and feces) was measured on a Wizard 2470 Automatic Gamma Counter, and the tissue-associated activity was calculated as the mean % ID/g using the following formula: [(activity in the target organ/grams of tissue)/injected dose]×100%.
Biodistribution studies were performed in subcutaneous U251 MG xenograft bearing athymic nude mice (n=12). Mice were divided in two groups (blocked and unblocked) and administered with C-2f (approximately 50 μCi, 45 mCi/μmol in […], 10% EtOH in 0.9% sterile saline) via tail vein injection. […] Mice were sacrificed by CO2 asphyxiation at 120 min post injection and major organs were collected, weighed, and counted in a WIZARD^2 automatic γ-counter (PerkinElmer, Boston, Mass.). The radiopharmaceutical uptake was expressed as a percentage of injected dose per gram (% ID/g) using the following formula: [(activity in the target organ/grams of tissue)/injected dose]×100%.

Data set [2] in a line: Stability in whole blood (in vitro). In kind it is in vitro ADME. The following applies: whole human blood, 37° C., 15 to 240 minutes. As for the experimental part: C-2f was then extracted with 750 μL of MeCN, then centrifuged (5 minutes at 5000 rpm) to pellet blood cells and proteins. The supernatant was collected and prepared for HPLC injection by adding 750 μL mQ H2O and filtering. The blood stability was measured by HPLC analysis (Method A).

Data set [3] in a line: Blood half-life. In kind it is in vivo, mouse. The following applies: athymic nude mice, tail vein injection. As for the experimental part:
The blood half-life was determined by measuring the activity in serial blood samplings. […] Measurements in counts per minute were calculated as the mean % ID/g. The blood half-life was calculated using Prism 6.0c (GraphPad Software, La Jolla, Calif.).
The blood half-life was calculated by measuring the activity of blood samples collected at different time points p.i. […] The collected blood was weighed and counted in a WIZARD^2 automatic γ-counter (PerkinElmer, Boston, Mass.). The blood half-life was calculated using Prism 6.0c (GraphPad Software, La Jolla, Calif.) using a two-phase decay least squares fitting method and expressed as % ID/g.

The test system of data set [4] is mice bearing orthotopic U251 MG. Put plainly: PET/CT imaging using C-2f. In kind it is in vivo, mouse. As for the experimental part:
Mice bearing orthotopic U251 MG (n=8) were divided in two groups (unblocked and blocked) and administered with C-2f (150 μCi, 45 mCi/μmol in 300 μL 10% EtOH in 0.9% sterile saline) via tail vein injection. […] Approximately 5 min prior to PET acquisition, mice were anesthetized by inhalation of a mixture of isoflurane (Baxter Healthcare, Deerfield, Ill., USA; 2% isoflurane, 2 L/min medical air) and positioned on the scanner bed. Anesthesia was maintained using a 1% isoflurane/O2 mixture. PET data for each mouse was recorded using static scans of 10 minutes and acquired at 30 and 120 minutes post injection. Quantification (see FIG. 8) and % ID/g values were calculated by manually drawing regions of interests in three different frames and determining the average values using ASI Pro VM™ MicroPET Analysis software (Siemens Medical Solutions, Knoxville, Tex.).

In data set [5] the test system is orthotopic U251 MG tumor bearing mice. The data set is described as follows: Autoradiography using C-2f. In kind it is in vivo, mouse. As for the experimental part:
One day after PET/CT imaging, the same orthotopic U251 MG tumor bearing mice of Example 4.1.3 were administered with C-2f (80 μCi, 45 mCi/μmol in 300 μL 10% EtOH in 0.9% sterile saline) via tail vein injection. […] The mice were sacrificed after 2 hours and brain and muscle tissues harvested. The collected organs were fixed in Tissue-Tek O.C.T. compound (Sakura Finetek, Torrance, Calif.) and flash-frozen in liquid nitrogen and cut into 20 μm sections using a Vibratome Ultra Pro 5000 Cryostat (Vibratome, St. Louis, Mo.). A storage phosphor autoradiography plate (Fujifilm, BAS-MS2325, Fuji Photo Film, Japan) was exposed to the tissue slices overnight at −20° C. and read the following day (images not shown). Relative count intensity of the sections in each image was quantified using ImageJ 1.47 u processing software (see FIGS. 6A and 6B). Tumor/muscle and brain/muscle ratios were calculated using Prism 6.0c (GraphPad Software, La Jolla, Calif.). The same sections were subsequently subjected to H&E staining (hematoxylin-eosin) for morphological evaluation of tissue pathology and to compare the localization of the radiotracer with the location of tumor tissue (images not shown).

A short description of data set [6]: half-life of PARP1i-FL (T. Reiner et al., unpublished). The following applies: in vivo.
The conditions of data set [7]: cited from earlier work.
For data set [8], the system named is V79 cells. The note with it: DNA-incorporated; cited from earlier work.

Structures are written as SMILES. Marks after values point to notes of the source that are not given here.

We go through four molecules from US10512700B2, “Radiohalide-labeled targeted diagnostics and therapeutics” (Memorial Sloan Kettering Cancer Center, priority 2014, dated 2019).

As to `O=C(c1ccc([18F])cc1)N1CCN(C(=O)c2cc(Cc3n[nH]c(=O)c4ccccc34)ccc2F)CC1` [C-2f (^18F)], in data set [1], the “% ID/g, Brain” value is listed as 0.04±0.01 % ID/g; the “% ID/g, Muscle” value is 0.37±0.09 % ID/g; the “% ID/g, Tumor” value was found to be 1.82±0.21 % ID/g. The “in vitro blood stability” value in data set [2] is “excellent stability”. Moreover, the “in vitro blood stability” value in data set [2] (listed as C-2f) is “no radioactive metabolites were observed”. Further, in data set [3], the alpha blood half-life came out at 1.27 min; the beta blood half-life worked out at 31.14 min; the “beta blood half-life, share of phase” value is reported as 14.49%. This molecule also showed a weighted blood half-life in data set [3] (50 μCi) of 5.6 min. Besides, the “PET retained activity in tumor” value in data set [4] (animals receiving only C-2f) was 2.15±0.79 % ID/g. For the same molecule, the “PET retained activity in tumor” value in data set [4] (animals that received both olaparib and C-2f) was determined as 0.28±0.01 % ID/g. Moreover, the “PET retained activity, C-2f only vs olaparib and C-2f” value in data set [4] (mouse, in vivo) was “eight-fold higher”. For the same molecule, in data set [5] (C-2f only, 2 hours), the “autoradiography, retention in orthotopic tumor” value worked out at 46.66±14.94 AU and the “autoradiography, retention in surrounding brain” value was 0.06±0.02 AU. In addition, the “autoradiography, muscle tissue” value in data set [5] (healthy mice) was 1.50±0.31 AU. In addition, the “reduction of C-2f by preinjection of olaparib” value in data set [5] (orthotopic tumor) was found to be 99%. Moreover, in data set [5] (preinjection of olaparib), the “autoradiography, retention in orthotopic tumor” value came out at 0.44±0.41 AU and the “autoradiography, retention in surrounding brain” value is on record as 0.03±0.01 AU. In addition, the “autoradiography, muscle tissue” value in data set [5] (tumor-bearing mice) was 1.36±0.21 AU.
Consider `Cc1cc(C)n2c1C=C1C=CC(CCC(=O)N3CCN(C(=O)c4cc(Cc5n[nH]c(=O)c6ccccc56)ccc4F)CC3)=[N+]1[B-]2(F)F` [PARP1i-FL], for which, in data set [6], the tα1/2 is reported as 1.2 min; the “tα1/2, share of phase” value was found to be 73.2%; the tβ1/2 is given as 88.2 min; the “tβ1/2, share of phase” value worked out at 26.8%. Also, the “weighted t1/2” value in data set [6] is reported as 24.5 min^c. The plasma free fraction in data set [7] is listed as 0.7%^b.
Regarding `O=c1[nH]c(=O)n([C@H]2C[C@H](O)[C@@H](CO)O2)cc1I` [^123I-IdUrd, 5-iodo-2′-deoxy uridine], the RBE in data set [8] is recorded as roughly 7.
Regarding `O=c1[nH]c(=O)n([C@H]2C[C@H](O)[C@@H](CO)O2)cc1I` [^125I-IdUrd, 5-iodo-2′-deoxy uridine], in data set [8], the RBE result is given as “about 8”.
